Several values for one entry are separate records, joined by “and”; a condition that tells them apart may be missing. Identical values can stand only once.

The record followed here is the Deep4Chem optical property database.

This series in a line: solvent given as SMILES.
Setting [1] is: in c1ccc2c(c1)c1ccccc1n2-c1ccc(-c2ccc(-n3c4ccccc4c4ccccc43)cc2)cc1.

With `CN1c2cc3nc4cc(F)c(F)cc4nc3cc2N(C)C1(C)C`, where the note is “in CCO”, the emission maximum was found to be 488 nm.

The compound `Cc1cc(C)c(B(c2cc3ccc4cccc5ccc(c2)c3c45)c2c(C)cc(C)cc2C)c(C)c1` yielded an emission maximum (in Cc1ccccc1) of 434 nm.

Compound `O=c1c2cc(S(=O)(=O)Cl)ccc2[nH]c2ccc(S(=O)(=O)Cl)cc12` yielded an emission maximum (in CS(C)=O) of 417 nm.

For the setting “in C1CCCCC1”, `CCCC1(CCC)c2ccccc2-c2ccc(-c3ccc(C(C)(C)C)cc3)cc21` had an emission maximum of 314 nm.

As for `Oc1ccccc1/C=N/CC/N=C/c1ccccc1O`, the emission maximum (in CC#N) is 461 nm.

Regarding `Cc1ccc(-c2ccc(/C=C/c3ccc(Br)n3C)cn2)nc1`, the emission maximum (in CC#N) was 480 nm.

The compound `CCCCCCN1C(=O)c2cccc3c(-c4cccs4)ccc(c23)C1=O` showed an emission maximum (in ClC(Cl)Cl) of 465 nm.

For `COc1cc(OC)c2cc(-c3ccccc3CC#N)c(=O)oc2c1`, the emission maximum (in ClC(Cl)Cl) came out at 422 nm.

As to `COC(=O)c1ccc(C(=O)NC(C)(C)C)c2c1ccc1c3ccccc3c3ccccc3c12`, under “in ClCCl”, the emission maximum worked out at 448 nm.

`FC(F)(F)c1ccc(-c2ncc3ccccn23)cc1` registered an emission maximum (in ClC(Cl)Cl) of 459 nm.

Take `CCCCCCc1ccc(-n2c3[n+](c4c5ccccc5c5ccccc5c42)[B-](C)(C)c2ccc4ccccc4c2-3)cc1`: the emission maximum by setting is: (in C1CCOC1) 444 nm; (in CC#N) 443 nm; (in Cc1ccccc1) 444 nm; (in ClCCl) 435 nm.

For the compound `CCN(CC)c1ccc2c(-c3ccc(S(=O)(=O)O)cc3S(=O)(=O)[O-])c3ccc(=[N+](CC)CC)cc-3oc2c1`, the emission maximum (in CC#N) is listed as 575 nm, the emission maximum (in CCO) worked out at 581 nm, the emission maximum (in CN(C)C=O) amounted to 576 nm and the emission maximum (in O) is given as 591 nm.

In the case of `Cc1cn(CCCn2cc(C)c(=O)[nH]c2=O)c(=O)nc1-n1cncn1`, the emission maximum (in O) came out at 382 nm.

For `Cc1c2ccncc2c(C)c2c1[nH]c1ccccc12`, the emission maximum is, setting by setting: (in C1CCCCC1) 392 nm; (in C1CCOC1) 413 nm; (in C1COCCO1) 410 nm; (in CC#N) 420 nm; (in CC(C)(C)O) 420 nm; (in CC(C)O) 424 nm. The emission maximum is 419 nm (in CCC(C)(C)O); 390 nm (in CCCCCC); 427 nm (in CCCCO); 429 nm (in CCO); 410 nm (in CCOC(C)=O); 405 nm (in CCOCC). The emission maximum was 425 nm (in CN(C)C=O), 434 nm (in CO), 428 nm (in CS(C)=O) and 403 nm (in Cc1ccccc1).

As for `CC1(C)c2ccccc2N(c2c(F)cc(-c3nnc(-c4ccccc4)o3)cc2F)c2ccccc21`, the emission maximum by setting is: (in Cc1ccccc1) 490 nm; (in O=P(c1ccccc1)(c1ccccc1)c1ccccc1Oc1ccccc1P(=O)(c1ccccc1)c1ccccc1) 495 nm.

Take `CCOC(=O)c1c(-c2c(Cl)c3ccccc3oc2=O)nn(-c2cccc(C)c2)c1C(=O)OCC`: the emission maximum (in ClCCl) is 410 nm.

Under “in CS(C)=O”, `O=C(O)COc1cccc(-c2c3nc(cc4ccc([nH]4)c(-c4cccc(OCC(=O)O)c4)c4nc(cc5ccc2[nH]5)CC4)CC3)c1` had an emission maximum of 738 nm.

On to `CN(C)c1ccc(/C=C/c2nc(/C=C/c3ccc(N(C)C)cc3)c3ccccc3n2)cc1`, for which the emission maximum is 503 nm (in C1CCCCC1); 540 nm (in C1CCOC1); 570 nm (in CC#N); 580 nm (in CS(C)=O); 545 nm (in ClCCl).

Turning to `C1=Cc2ccccc2C(=Cc2ccc(-c3cc(-c4ccc(C=C5c6ccccc6C=Cc6ccccc65)cc4)cc(-c4ccc(C=C5c6ccccc6C=Cc6ccccc65)cc4)c3)cc2)c2ccccc21`, the emission maximum (in C1CCOC1) amounted to 405 nm.

On to `CN(C)c1ccc2nc(-c3ccc(C=C(C#N)C#N)cc3)sc2c1`, for which the emission maximum runs as follows: (in C1CCCCC1) 526 nm; (in ClC(Cl)Cl) 683 nm.

Turning to `O=c1oc2ccc3cccc4c(O)c(Cl)c(c1Cl)c2c34`, for the setting “in CC1CCCO1”, the emission maximum turned out to be 500 nm.

As to `CC1=CC(C)=[N+]2C1=Cc1c3ccccc3c(C#Cc3ccsc3)n1[B-]2(F)F`, the emission maximum runs as follows: (in CCCCCC) 615 nm; (in CCCCCCCCO) 621 nm; (in CCOC(C)=O) 616 nm; (in CN(C)C=O) 623 nm; (in ClCCl) 628 nm.

`N#Cc1cc(-n2c3ccccc3c3ccccc32)c(-n2c3ccccc3c3ccccc32)cc1C#N`: the emission maximum runs as follows: (in C1CCOC1) 501 nm; (in Cc1ccccc1) 473 nm; under setting [1], 474 nm.

`CCc1c(C)[nH]c(C2=[N+]3C(=Cc4c(C)c(CC)c(C)n4[B-]3(F)F)c3ccccc32)c1C` came in with an emission maximum (in C1CCOC1) of 644 nm; an emission maximum (in CC#N) of 643 nm; an emission maximum (in CCCCCC) of 641 nm; an emission maximum (in CO) of 642 nm; an emission maximum (in Cc1ccccc1) of 651 nm; an emission maximum (in ClCCl) of 650 nm.

`COc1ccc(-c2c3ccc([nH]3)c3nc(c(-c4ccc(C#N)cc4)c4ccc([nH]4)c4ccc([nH]4)c(-c4ccc(OC)cc4)c4ccc2o4)C=C3)cc1` gave an emission maximum (in C1CCOC1) of 736 nm, an emission maximum (in Cc1ccccc1) of 724 nm and an emission maximum (in c1ccccc1) of 724 nm.

Take `CC[B-]1(CC)c2cccc3cc4ccccc4c(c23)-c2cccc(C)[n+]21`: the emission maximum (in ClCCl) came to 538 nm.

`CCCCCCOc1ccc(C#Cc2ccc(-c3ccc(-c4ccc(C#Cc5ccc(OCCCCCC)c(OCCCCCC)c5)s4)c4nsnc34)s2)cc1OCCCCCC`: the emission maximum reads like this: (in C1CCCCC1) 600 nm; (in CCOC(C)=O) 635 nm; (in CN(C)C=O) 666 nm; (in COc1ccccc1) 636 nm; (in Cc1ccccc1) 620 nm; (in ClC(Cl)Cl) 648 nm. Further, the emission maximum came out at 650 nm (in ClCCCl) and 649 nm (in ClCCl).

Compound `N#Cc1ccc(-c2cn3cc(-c4ccccc4)c[n+]3[n-]2)cc1` registered an emission maximum (in ClCCl) of 506 nm.

On to `Cc1ccc(N(c2ccc(C)cc2)c2c3ccccc3c(N(c3ccc(C)cc3)c3ccc(C)cc3)c3ccccc23)cc1`, for which the emission maximum (in Cc1ccccc1) was determined as 533 nm.

`COc1ccccc1C1=C2C(C)=CC(C)=[N+]2[B-](F)(F)n2c(C)cc(C)c21` showed an emission maximum (in C1CCOC1) of 516 nm; an emission maximum (in CC#N) of 512 nm; an emission maximum (in CC(=O)C(C)(C)C) of 514 nm; an emission maximum (in CC(C)=O) of 513 nm; an emission maximum (in CCCCCC) of 516 nm; an emission maximum (in CCOC(C)=O) of 514 nm. For the same compound, the emission maximum (in CO) stood at 514 nm.

In turn, `O=S1(=O)C2=C(c3ccccc31)C1(c3ccccc32)c2ccccc2-c2sc3ccccc3c21` (stereo unspecified) displayed an emission maximum (in ClCCl) of 459 nm.

In the case of `CCCCCCCCC1(CCCCCCCC)c2cc3c(cc2-c2sc(-c4ccc(/C=C5\SC(=S)N(CC)C5=O)c5nsnc45)cc21)C(CCCCCCCC)(CCCCCCCC)c1cc(-c2ccc(/C=C4\SC(=S)N(CC)C4=O)c4nsnc24)sc1-3`, the emission maximum (in ClC(Cl)Cl) is on record as 728 nm.

`CN(C)c1ccc(-c2nc3cccnc3[nH]2)cc1` yielded an emission maximum (in C1CCCCC1) of 359 nm and an emission maximum (in CC#N) of 408 nm.

Consider `c1ccc2[nH]ccc2c1`, for which the emission maximum (in O) is 360 nm and 345 nm and 340 nm.

With `COC(=O)/C=C/c1ccc2ccc3cccc4ccc1c2c34`, the emission maximum (in C1CCOC1) amounted to 425.5 nm; the emission maximum (in C1COCCO1) is listed as 422.5 nm; the emission maximum (in C=CC#N) was 447.5 nm; the emission maximum (in CC#N) is reported as 450 nm; the emission maximum (in CC(C)=O) was determined as 438 nm; the emission maximum (in CCCCCC) was found to be 406.5 nm. Further, the emission maximum is on record as 423 nm (in CCOC(C)=O), 462.5 nm (in CO), 423 nm (in Cc1ccccc1) and 442 nm (in ClCCl).

Take `CCCCCCCCCCn1c(-c2cc(-c3nc4ccc(C)cc4n3CCCCCCCCCC)cc(-c3nc4ccc(C)cc4n3CCCCCCCCCC)c2)nc2ccc(C)cc21`: the emission maximum (in C1CCOC1) was found to be 379.1 nm.

With `C=CC(=O)Oc1ccc2cc(C=C)c(=O)oc2c1`, the emission maximum (in CC#N) is recorded as 430 nm.

`CCOC(=O)C1=CNC=C(C(=O)OCC)C1c1ccccc1`: the emission maximum amounted to 412 nm (in C1CCOC1) and 423 nm (in CO).

`CCCCCCC1(CCCCCC)c2cc(-c3nc(-c4ccc5c(c4)C(CCCCCC)(CCCCCC)c4cc(N6c7ccccc7Oc7ccccc76)ccc4-5)nc(-c4ccc5c(c4)C(CCCCCC)(CCCCCC)c4cc(N6c7ccccc7Oc7ccccc76)ccc4-5)n3)ccc2-c2ccc(N3c4ccccc4Oc4ccccc43)cc21`: the emission maximum is, setting by setting: (in C1CCOC1) 616 nm; (in CCCCCC) 485 nm; (in Cc1ccccc1) 525 nm; (in ClCCl) 621 nm.

In turn, `C(=C\c1c2ccccc2cc2ccccc12)/c1cccc2ccccc12` registered an emission maximum (in CC1CCCCC1) of 501 nm and an emission maximum (in CC#N) of 503 nm.

For the compound `O=C1c2ccc(N(c3ccc(-c4ccccc4)cc3)c3ccc(-c4ccccc4)cc3)cc2C(=O)c2ccc(N(c3ccc(-c4ccccc4)cc3)c3ccc(-c4ccccc4)cc3)cc21`, the emission maximum was 629 nm (in Cc1ccccc1) and 603 nm under setting [1].

Regarding `CC(C)(C)[Si](C)(C)c1cccc2ccccc12`, for the setting “in C1CCCCC1”, the emission maximum is 329 nm.

With `C[Si](C)(C)[Si](C)(C)c1c2ccccc2cc2ccccc12`, the emission maximum came out at 429 nm (in C1CCCCC1) and 430 nm (in CC#N).

`Cc1cc(C2=C(c3cc(C)sc3C)S(=O)(=O)c3ccccc32)c(C)s1` displayed an emission maximum (in C1CCOC1) of 465 nm.

In turn, `COC(=O)C1=C(C(=O)OC)C2(c3ccccc3-c3c(Br)cc(Br)cc32)C2(/C=C/c3ccccc3)c3cc(OC)c(OC)cc3CCN12` (stereo unspecified) gave an emission maximum (in ClCCl) of 491 nm.

With `N#Cc1ccccc1N1c2ccccc2C(c2ccccc2)(c2ccccc2)c2ccccc21`, the emission maximum (in Cc1ccccc1) stood at 441 nm.
